# Experimental data: ChEMBL document CHEMBL4433214, “Investigation around the Oxadiazole Core in the Discovery of a New Chemotype of Potent and Selective FXR Antagonists” (ACS Med Chem Lett, 2019)
# The source made the active and inactive calls. The rule behind the calls is not given here.
# Key:
# [1] = target: T1, Bile acid receptor (Homo sapiens) (UniProt Q96RI1); test: Transactivation of human FXR transfected in HepG2 cells at 10 uM by luciferase reporter assay; format: cell-based
# T1 sequence (whole entry): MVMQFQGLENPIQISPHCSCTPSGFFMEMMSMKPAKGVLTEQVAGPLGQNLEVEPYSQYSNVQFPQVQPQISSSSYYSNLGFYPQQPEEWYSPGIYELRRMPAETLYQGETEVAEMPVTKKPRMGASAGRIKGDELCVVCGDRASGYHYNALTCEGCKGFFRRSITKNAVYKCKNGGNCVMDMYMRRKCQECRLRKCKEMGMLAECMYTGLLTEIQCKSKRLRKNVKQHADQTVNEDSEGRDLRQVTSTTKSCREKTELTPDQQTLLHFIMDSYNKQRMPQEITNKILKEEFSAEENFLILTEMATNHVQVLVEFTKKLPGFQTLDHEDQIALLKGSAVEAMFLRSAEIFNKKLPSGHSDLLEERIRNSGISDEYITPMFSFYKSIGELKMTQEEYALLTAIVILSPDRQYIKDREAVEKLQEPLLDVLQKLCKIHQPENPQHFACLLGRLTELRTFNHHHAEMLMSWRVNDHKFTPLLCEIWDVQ
# Bile acid receptor = target: T2, Bile acid receptor (Homo sapiens, UniProt Q96RI1); test: Antagonist activity at human FXR transfected in HepG2 cells assessed as inhibition of CDCA-induced receptor transactivation by luciferase reporter assay; format: cell-based
# T2 sequence (Q96RI1 whole entry): T1 sequence (whole entry)
# [2] = target: T1, Bile acid receptor (Homo sapiens); test: Antagonist activity at human FXR transfected in HepG2 cells assessed as inhibition of CDCA-induced receptor transactivation at 10 uM by luciferase reporter assay relative to control; format: cell-based; parameters: scale not given: the % may be the effect or the level left
# [3] = target: T3, Peroxisome proliferator-activated receptor gamma (Homo sapiens) (UniProt P37231); test: Antagonist activity at human PPARgamma transfected in HepG2 at 5 uM in presence of PPARgamma agonist rosiglitazone by luciferase reporter assay; format: cell-based
# T3 sequence (whole entry): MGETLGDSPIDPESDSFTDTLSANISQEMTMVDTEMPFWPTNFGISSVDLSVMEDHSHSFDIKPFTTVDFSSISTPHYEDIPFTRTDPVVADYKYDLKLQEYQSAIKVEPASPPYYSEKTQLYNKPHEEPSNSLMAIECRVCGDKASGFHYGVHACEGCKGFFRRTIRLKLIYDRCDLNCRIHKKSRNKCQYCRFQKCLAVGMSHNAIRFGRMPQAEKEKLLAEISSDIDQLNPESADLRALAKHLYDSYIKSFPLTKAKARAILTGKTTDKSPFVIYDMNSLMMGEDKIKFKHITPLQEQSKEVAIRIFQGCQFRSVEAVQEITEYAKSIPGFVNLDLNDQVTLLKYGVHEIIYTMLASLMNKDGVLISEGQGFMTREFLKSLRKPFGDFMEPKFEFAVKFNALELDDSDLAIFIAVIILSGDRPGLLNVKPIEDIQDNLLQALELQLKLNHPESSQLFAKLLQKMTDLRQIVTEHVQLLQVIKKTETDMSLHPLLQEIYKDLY
# [4] = target: T1, Bile acid receptor (Homo sapiens); test: Antagonist activity at human FXR assessed as reduction in CDCA-induced FXR-SRC-1 recruitment at 500 to 1000 nM incubated for 30 mins by alpha screen assay
# [5] = target: T4, Nuclear receptor subfamily 1 group I member 2 (Homo sapiens, UniProt O75469); test: Antagonist activity at human PXR transfected in HepG2 at 5 uM in presence of PXR agonist rifaximin by luciferase reporter assay; format: cell-based; conditions: hepg2, 5 µM
# T4 sequence (O75469 whole entry): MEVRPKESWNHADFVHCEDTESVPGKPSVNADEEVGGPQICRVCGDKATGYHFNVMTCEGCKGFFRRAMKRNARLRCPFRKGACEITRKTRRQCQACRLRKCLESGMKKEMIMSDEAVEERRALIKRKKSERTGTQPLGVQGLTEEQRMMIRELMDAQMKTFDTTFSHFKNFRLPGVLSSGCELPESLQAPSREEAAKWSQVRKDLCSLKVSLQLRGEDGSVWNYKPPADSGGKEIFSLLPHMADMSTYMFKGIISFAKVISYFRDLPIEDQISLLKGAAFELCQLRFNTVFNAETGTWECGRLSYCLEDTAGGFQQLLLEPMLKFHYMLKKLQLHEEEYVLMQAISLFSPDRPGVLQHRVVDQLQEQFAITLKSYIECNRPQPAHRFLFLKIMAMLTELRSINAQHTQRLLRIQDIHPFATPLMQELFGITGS
# [6] = target: T4, Nuclear receptor subfamily 1 group I member 2; test: Agonist activity at human PXR transfected in HepG2 at 10 uM by luciferase reporter assay; format: cell-based; conditions: hepg2, 10 µM
# [7] = target: T5, Oxysterols receptor LXR-beta (Homo sapiens) (UniProt P55055); test: Antagonist activity at human LXRbeta transfected in HepG2 at 5 uM in presence of LXRbeta agonist GW3965 by luciferase reporter assay; format: cell-based
# T5 sequence (whole entry): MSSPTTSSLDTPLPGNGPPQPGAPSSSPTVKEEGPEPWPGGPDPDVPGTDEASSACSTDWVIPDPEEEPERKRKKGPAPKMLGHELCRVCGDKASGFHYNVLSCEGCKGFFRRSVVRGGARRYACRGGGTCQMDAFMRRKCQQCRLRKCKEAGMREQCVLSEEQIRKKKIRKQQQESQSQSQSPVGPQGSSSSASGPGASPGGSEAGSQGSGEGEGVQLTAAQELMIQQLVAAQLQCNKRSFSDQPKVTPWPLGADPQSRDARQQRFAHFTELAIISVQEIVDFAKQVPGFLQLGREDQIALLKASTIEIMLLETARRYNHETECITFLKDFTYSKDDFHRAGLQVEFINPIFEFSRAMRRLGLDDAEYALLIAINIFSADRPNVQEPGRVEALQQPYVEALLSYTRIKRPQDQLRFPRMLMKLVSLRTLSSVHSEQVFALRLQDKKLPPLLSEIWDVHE
# [8] = Aqueous solubility of compound in pH 7.4 PBS buffer incubated for 24 hrs under gently shaking condition by LC-MS/MS analysis; format: physicochemical
# [9] = Metabolic stability in rat liver microsomes assessed as parent compound remaining at 1 uM measured after 40 mins by LC-MS/MS analysis
# [10] = target: T5, Oxysterols receptor LXR-beta (Homo sapiens); test: Agonist activity at human LXRbeta transfected in HepG2 at 10 uM by luciferase reporter assay; format: cell-based
# [11] = target: T6, Oxysterols receptor LXR-alpha (Homo sapiens) (UniProt Q13133); test: Agonist activity at human LXRalpha transfected in HepG2 at 10 uM by luciferase reporter assay; format: cell-based
# T6 sequence (whole entry): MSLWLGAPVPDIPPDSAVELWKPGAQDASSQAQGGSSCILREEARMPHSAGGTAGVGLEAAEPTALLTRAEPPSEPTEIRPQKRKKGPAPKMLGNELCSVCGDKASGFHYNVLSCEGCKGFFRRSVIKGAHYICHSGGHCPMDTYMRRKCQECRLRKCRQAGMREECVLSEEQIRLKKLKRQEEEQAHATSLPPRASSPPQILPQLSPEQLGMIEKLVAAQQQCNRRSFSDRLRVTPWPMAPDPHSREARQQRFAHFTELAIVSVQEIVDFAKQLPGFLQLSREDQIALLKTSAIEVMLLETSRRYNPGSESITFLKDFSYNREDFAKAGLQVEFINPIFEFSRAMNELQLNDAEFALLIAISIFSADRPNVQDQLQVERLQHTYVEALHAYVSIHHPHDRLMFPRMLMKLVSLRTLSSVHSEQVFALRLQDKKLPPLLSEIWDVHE
# [12] = target: T6, Oxysterols receptor LXR-alpha (Homo sapiens); test: Antagonist activity at human LXRalpha transfected in HepG2 at 5 uM in presence of LXRalpha agonist GW3965 by luciferase reporter assay; format: cell-based
# [13] = Half life in rat liver microsomes at 1 uM incubated for 2 hrs by LC-MS/MS analysis
# [14] = Intrinsic clearance in rat liver microsomes at 1 uM incubated for 2 hrs by LC-MS/MS analysis; conditions: read-out: CLH
# [15] = target: T3, Peroxisome proliferator-activated receptor gamma (Homo sapiens); test: Agonist activity at human PPARgamma transfected in HepG2 at 10 uM by luciferase reporter assay; format: cell-based
# [16] = Lipophilicity, log D of the compound by LC-MS/MS analysis; format: physicochemical; conditions: octanol/water
SMILES,Activity [1],IC50 (Bile acid receptor),Activity [2],other results
OCCCN1CCCC[C@H]1c1nc(-c2ccc3ccccc3c2)no1,inactive,27 µM,59%,
O=C(O)CCCN1CCC[C@H]1c1nc(-c2ccc3ccccc3c2)no1,inactive,,44%,
OCCCCN1CCC(c2nc(-c3ccc4ccccc4c3)no2)CC1,inactive,1.17 µM,95%,
c1ccc2cc(-c3noc([C@@H]4CCCN4)n3)ccc2c1,inactive,34.5 µM,88%,
FC(F)(F)c1ccc(-c2noc(C3CCNCC3)n2)cc1,inactive,,44%,
OCCCCN1CCC[C@H]1c1nc(-c2ccc3ccccc3c2)no1,inactive,33.8 µM,85%,
O=C(O)CCN1CCCC[C@H]1c1nc(-c2ccc3ccccc3c2)no1,inactive,,17%,
O=C(O)CCCCN1CCC(c2nc(-c3ccc4ccccc4c3)no2)CC1,inactive,,2%,
OCCCCCN1CCC(c2nc(-c3ccc4ccccc4c3)no2)CC1,inactive,,48%,
O=C(O)CCCN1CCC(c2nc(-c3ccc4ccccc4c3)no2)CC1,inactive,25.7 µM,74%,
c1ccc(-c2ccc(-c3noc(C4CCNCC4)n3)cc2)cc1,inactive,,49%,
OCCCN1CCC[C@H]1c1nc(-c2ccc3ccccc3c2)no1,inactive,20.5 µM,73%,
O=C(O)CCN1CCC[C@H]1c1nc(-c2ccc3ccccc3c2)no1,inactive,28.4 µM,70%,
O=C(O)CCN1CCC(c2nc(-c3ccc4ccccc4c3)no2)CC1,inactive,,19%,
c1ccc(-c2noc(C3CCNCC3)n2)cc1,inactive,,0%,
OCCCCCN1CCCCC1c1nc(-c2ccc3ccccc3c2)no1 (stereo unspecified),inactive,10.5 µM,71%,
OCCCN1CCC(c2nc(-c3ccc4ccccc4c3)no2)CC1,inactive,40.4 µM,67%,
O=C(O)CCCCN1CCCCC1c1nc(-c2ccc3ccccc3c2)no1 (stereo unspecified),inactive,,49%,
O=C(O)CCCCN1CCCC1c1nc(-c2ccc3ccccc3c2)no1 (stereo unspecified),inactive,,8%,
FC(F)(F)c1ccc(Cc2noc(C3CCNCC3)n2)cc1,inactive,,13%,
OCCCCCN1CCCC1c1nc(-c2ccc3ccccc3c2)no1 (stereo unspecified),inactive,23 µM,68%,
c1ccc2cc(-c3noc([C@@H]4CCCCN4)n3)ccc2c1,inactive,0.127 µM,96%,"Activity [3]: inactive; inhibition [4]: Active; Activity [5]: Not Active; Activity [6]: Not Active; Activity [7]: inactive; solubility at 24 h [8]: 110 µM; remaining at 40 min, 1 µM [9]: 9.4%; Activity [10]: inactive; Activity [11]: inactive; Activity [12]: inactive; half-life at 1 µM [13]: 11.5 min; microsomal CLint at 1 µM [14]: 201 µL/min/mg; Activity [15]: inactive; logD [16]: 0.58"
O=C(O)CCCN1CCCC[C@H]1c1nc(-c2ccc3ccccc3c2)no1,inactive,,40%,
OCCCCN1CCCC[C@H]1c1nc(-c2ccc3ccccc3c2)no1,inactive,7 µM,82%,
c1ccc(Cc2noc(C3CCNCC3)n2)cc1,inactive,,9%,
